Blank lines part the entries; values can stand above or below the compound they belong to.
Key:
Assay type in all cases: functional, cell-based
[1] = test system: MCF7; assay: Antitumor activity against human MCF7 cells assessed as reduction in cell viability incubated for 72 hrs by MTT assay; details: MCF7, 72 h
[2] = test system: A549; assay: Antitumor activity against human A549 cells assessed as reduction in cell viability incubated for 72 hrs by MTT assay; details: A549, 72 h
[3] = test system: HeLa; assay: Antitumor activity against human HeLa cells assessed as reduction in cell viability incubated for 72 hrs by MTT assay
[4] = test system: HepG2; assay: Antitumor activity against human HepG2 cells assessed as reduction in cell viability incubated for 72 hrs by MTT assay; details: HepG2, 72 h
[5] = test system: PC-3; assay: Antitumor activity against human PC-3 cells assessed as reduction in cell viability incubated for 72 hrs by MTT assay; details: PC-3, 72 h
[6] = test system: HL-60; assay: Anticancer activity against human HL-60 cells assessed as reduction in cell viability incubated for 24 hrs by MTT assay; details: HL-60, 24 h
[7] = test system: HL-60; assay: Anticancer activity against human HL-60 cells assessed as reduction in cell viability incubated for 48 hrs by MTT assay; details: HL-60, 48 h
[8] = test system: A549; assay: Anticancer activity against human A549 cells assessed as reduction in cell viability by MTT assay
[9] = test system: MCF7; assay: Antiproliferative activity against human MCF7 cells assessed as inhibition of cell proliferation by CCK-8 assay
[10] = test system: HepG2; assay: Antiproliferative activity against human HepG2 cells assessed as inhibition of cell proliferation by CCK-8 assay
[11] = test system: PC-3; assay: Antiproliferative activity against human PC-3 cells assessed as inhibition of cell proliferation by CCK-8 assay
[12] = test system: NCI-H460; assay: Antiproliferative activity against human NCI-H460 cells assessed as inhibition of cell proliferation by CCK-8 assay
[13] = test system: MGC-803; assay: Antiproliferative activity against human MGC-803 cells assessed as inhibition of cell proliferation by CCK-8 assay
[14] = test system: SW-620; assay: Antiproliferative activity against human SW620 cells assessed as inhibition of cell proliferation by CCK-8 assay
[15] = test system: PANC-1; assay: Antiproliferative activity against human PANC-1 cells assessed as reduction in cell viability incubated for 24 to 72 hrs by MTT assay
[16] = test system: CAPAN-1; assay: Antiproliferative activity against human CAPAN-1 cells assessed as reduction in cell viability incubated for 24 to 72 hrs by MTT assay
[17] = test system: A2780; assay: Anticancer activity against human cisplatin resistant A2780 cells assessed as reduction in cell viability by MTT assay
[18] = test system: SW48; assay: Anticancer activity against human SW48 cells assessed as reduction in cell viability by MTT assay
[19] = test system: HL-60; assay: Antiproliferative activity against human HL-60 cells assessed as reduction in cell viability incubated for 48 hrs by MTT assay; details: HL-60, 48 h
[20] = test system: L1210; assay: Antiproliferative activity against mouse L1210 cells assessed as reduction in cell viability incubated for 48 hrs by MTT assay; details: L1210, 48 h

Structure (SMILES): C[C@H]1COc2c(N3CCN(C)CC3)c(F)cc3c(=O)c(C(=O)NCc4cn(CCCCCCC(=O)NO)nn4)cn1c23
- IC50 [1]: 300 nM
- IC50 [2]: 300 nM
- IC50 [3]: 300 nM
- IC50 [4]: 300 nM
- IC50 [5]: 300 nM

- IC50 [6]: 19.3 µM
- IC50 [7]: 15.7 µM
Structure (SMILES): COc1ccc2cc3[n+](cc2c1OC(=O)c1cn(C2CC2)c2cc(N4CCNCC4)c(F)cc2c1=O)CCc1cc2c(cc1-3)OCO2

- IC50 [8]: 34.5 µM
Structure (SMILES): C[C@H]1COc2c(Nn3c(=O)[nH][nH]c3=O)c(F)cc3c(=O)c(C(=O)O)cn1c23

- IC50 [9]: 600 nM
- IC50 [10]: 600 nM
- IC50 [11]: 600 nM
- IC50 [12]: 600 nM
- IC50 [13]: 600 nM
- IC50 [14]: 600 nM
Structure (SMILES): C[C@H]1COc2c(N3CCN(C)CC3)c(F)cc3c(=O)c(-c4nnc(NC(=O)CCCCCCC(=O)NO)s4)cn1c23

- IC50 [15]: 3.1 µM
Structure (SMILES): CN1CCN(c2cc3c(cc2F)c(=O)c(/C=C2\CN(C4CC4)c4cc(N5CCNCC5)c(F)cc4C2=O)cn3C2CC2)CC1
- IC50 [16]: 1600 nM

- IC50 [17]: ≤ 43 µM
- IC50 [18]: ≤ 43 µM
Structure (SMILES): C[C@H]1COc2c(Nc3ccc(-n4c(=O)[nH][nH]c4=O)cc3)c(F)cc3c(=O)c(C(=O)O)cn1c23

- IC50 [19]: 540 nM
- IC50 [20]: 3.6 µM
Structure (SMILES): O=c1c(-c2nn3c(-c4cn(C5CC5)c5cc(N6CCNCC6)c(F)cc5c4=O)nnc3s2)cn(C2CC2)c2cc(N3CCNCC3)c(F)cc12
